In the data set the target is hERG (KCNH2) (Homo sapiens, UniProt Q12809). Briefly: Inhibition of human ERG at 1 uM by whole cell patch clamp method relative to control. It is filed as toxicity.

One may read the inhibition as the change of the read-out against control, counted positive when it falls.

Chain of hERG (KCNH2) (Q12809 whole entry): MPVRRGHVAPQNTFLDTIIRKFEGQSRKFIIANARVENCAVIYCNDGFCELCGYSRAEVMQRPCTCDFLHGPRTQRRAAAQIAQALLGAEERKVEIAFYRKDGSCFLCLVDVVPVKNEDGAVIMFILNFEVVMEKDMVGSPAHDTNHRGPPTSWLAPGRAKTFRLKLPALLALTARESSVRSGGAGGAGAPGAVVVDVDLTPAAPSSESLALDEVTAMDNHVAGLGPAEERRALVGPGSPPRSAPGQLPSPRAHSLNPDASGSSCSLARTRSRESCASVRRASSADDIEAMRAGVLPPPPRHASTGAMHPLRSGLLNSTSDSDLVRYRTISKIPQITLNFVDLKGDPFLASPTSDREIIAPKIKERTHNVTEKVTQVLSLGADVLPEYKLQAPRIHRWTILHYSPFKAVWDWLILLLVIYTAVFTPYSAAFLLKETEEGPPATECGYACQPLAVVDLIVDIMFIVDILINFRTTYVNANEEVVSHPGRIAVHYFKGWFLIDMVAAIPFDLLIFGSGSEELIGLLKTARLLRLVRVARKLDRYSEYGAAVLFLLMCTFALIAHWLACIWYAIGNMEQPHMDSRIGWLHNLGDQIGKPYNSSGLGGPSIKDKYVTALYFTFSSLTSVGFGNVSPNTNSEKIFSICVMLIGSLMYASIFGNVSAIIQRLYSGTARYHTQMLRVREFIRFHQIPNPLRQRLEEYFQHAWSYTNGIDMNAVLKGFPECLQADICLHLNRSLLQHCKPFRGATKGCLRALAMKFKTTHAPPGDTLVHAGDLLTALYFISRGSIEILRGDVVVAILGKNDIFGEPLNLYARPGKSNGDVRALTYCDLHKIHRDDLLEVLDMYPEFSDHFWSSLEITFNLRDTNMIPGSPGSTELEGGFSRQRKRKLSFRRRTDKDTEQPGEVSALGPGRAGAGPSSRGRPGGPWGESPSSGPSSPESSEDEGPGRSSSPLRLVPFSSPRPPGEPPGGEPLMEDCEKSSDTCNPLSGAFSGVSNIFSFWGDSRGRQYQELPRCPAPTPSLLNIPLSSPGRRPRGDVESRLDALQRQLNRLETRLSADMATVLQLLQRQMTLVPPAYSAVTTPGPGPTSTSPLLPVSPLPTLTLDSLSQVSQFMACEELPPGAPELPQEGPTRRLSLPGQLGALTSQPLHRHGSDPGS

With `O=C(O)c1ccc2nc(CN3CCC(c4cccc(OCc5ccc(C6COC6)cc5F)n4)CC3)n(C[C@@H]3CCO3)c2c1`, the inhibition at 1 µM was 3.75%.
